Results reported in US20170157301A1, “LEOLIGIN DERIVATIVES AS SMOOTH MUSCLE CELL PROLIFERATION INHIBITORS” (TECHNISCHE UNIVERSITAET WIEN, priority 2014, published 2017).

system: SMCs in relation to ECs; experiment: activity ratio: efficiency towards SMCs / efficiency towards ECs; assay type: cell-based; settings: activity ratio class; order in Table 1 follows the calculated values
Procedure: For determination of vascular SMC proliferation, 0.5×10^4 viable rat aortic SMCs per well were seeded in SMC growth medium (DMEM/F12 medium with 20% serum, 30 μg/mL Gentamicin and 15 ng/mL Amphotericin) in 96-well plates. 24 h later, the medium was removed, the cells were washed once with SMC starvation medium (DMEM/F12 medium with 0.1% serum, 0.2% BSA, 30 μg/mL Gentamicin and 15 ng/mL Amphotericin) and incubated in starvation medium for further 24 h.
The quiescent cells were then pretreated for 30 min with the test compounds and induced to proliferate with 20 ng/mL platelet-derived growth factor (PDGF). Unstimulated cells were utilized for normalization and estimation of the basal level of proliferation. The final concentration of the solvent vehicle, dimethyl sulfoxide (DMSO), was the same (0.1%) in all wells. 48 h later, the SMC proliferation was quantified by resazurin dye conversion for 2 h as previously described (H. Joa et al., J. Nat. Prod. 74(6), 1513-6 (2011)).
For determination of endothelial cell proliferation, 0.5×10^4 HUVECtert immortalized human umbilical vein endothelial cells (H. B. Schiller et al., Mol. Biol. Cell. 20(3), 745-756 (2009)) were seeded in 96-well plates for 24 h in HUVEC Complete Medium (EBM™ growth medium supplemented with 10% fetal bovine serum, EBM™ SingleQuots (Lonza, Basel, Switzerland), 100 U/mL benzylpenicillin, 100 μg/mL streptomycin, and 1% amphotericin). Afterwards, the medium was exchanged with fresh HUVEC Complete Medium and cells were treated with the indicated compounds for 48 h. After the end of the incubation period, the medium was removed, the cells were washed once with 200 μL/well PBS, and treated with 150 μL HUVEC Complete Medium containing 10 μg/mL resazurin. 2 h later, the fluorescence was measured at a wavelength of 580 nm, with excitation wavelength 535 nm in a 96-well plate reader (Tecan GENios Pro; Tecan Group Ltd., Mannedorf, Switzerland).
In every case, the percentage of viable cells was subtracted from 1, in order to obtain a measure of efficiency of the test compounds towards each particular type of cells, and subsequently, the efficiency quotient towards SMCs and ECs was calculated and taken as the “activity ratio” and thus as a measure of selective efficiency of each test compound towards SMCs in relation to ECs. For example, the synthetic Leoligin with the bio ID 2418 prepared in Comparative Example 27 as compound 10-22 gave the following results:
Due to the usual fluctuations in determining surviving cells, which amount to approximately ±10%, and due to the relatively strong resulting fluctuations in calculating quotients—especially if the inhibitory effect of said novel compounds towards ECs is very poor—said threshold value of 1.50 for the activity ratio, as already mentioned above, was introduced.
In the following, a table listing every compound prepared in examples and comparative Examples for which an activity ratio (a.r.) of >1.0 was determined, is given.

Structure (SMILES) | a.r. code
COc1ccc(C[C@H]2CO[C@H](c3ccc(OC)c(OC)c3)[C@H]2COC(=O)CC23CC4CC(CC(C4)C2)C3)cc1OC [Example 27, ((2S,3R,4R)-4-(3,4-dimethoxybenzyl)-2-(3,4-dimethoxyphenyl)tetrahydrofuran-3-yl) methyl 2-(adamantan-1-yl)acetate] | AA (a.r. ≧ 2.0)
COc1ccc(C[C@H]2CO[C@H](c3cc(OC)c(OC)c(OC)c3)[C@H]2COC(=O)C2=CCCC2)cc1OC [Example 35, ((2S,3R,4R)-4-(3,4-dimethoxybenzyl)-2-(3,4,5-trimethoxyphenyl)tetrahydro-furan-3-yl)methyl cyclopent-1-enecarboxylate] | AA (a.r. ≧ 2.0)
COc1ccc(C[C@H]2CO[C@H](c3ccc(OC)c(OC)c3)[C@H]2COC(=O)CC(C)C)cc1OC [Comparative Example 41, ((2S,3R,4R)-4-(3,4-dimethoxybenzyl)-2-(3,4-dimethoxyphenyl)tetrahydrofuran-3-yl)methyl 3-methylbutanoate] | V (1.0 < a.r. < 1.50)
COc1ccc([C@H]2OC[C@H](Cc3ccc(C(C)(F)F)cc3)[C@@H]2CO)cc1OC [Example 6, ((2S,3R,4R)-4-(4-(1,1-difluoroethyl)benzyl)-2-(3,4-dimethoxyphenyl)tetrahydro-furan-3-yl)methanol] | AA (a.r. ≧ 2.0)
COc1ccc(C[C@H]2CO[C@H](c3cc(OC)c(OC)c(OC)c3)[C@H]2COC(=O)C(C)C)cc1OC [Example 38, ((2S,3R,4R)-4-(3,4-dimethoxybenzyl)-2-(3,4,5-trimethoxyphenyl)tetrahydro-furan-3-yl)methyl isobutyrate] | AAA (a.r. ≧ 5.0)
COc1ccc(C[C@H]2CO[C@H](c3ccc(F)cc3)[C@H]2COC(=O)C2CCC2)cc1OC [Example 33, ((2S,3R,4R)-4-(3,4-dimethoxybenzyl)-2-(4-fluorophenyl)tetrahydrofuran-3-yl)methyl cyclobutanecarboxylate] | AA (a.r. ≧ 2.0)
COc1ccc(C[C@H]2CO[C@H](c3ccc(F)cc3)[C@H]2COC(=O)CC(C)(C)C)cc1OC [Comparative Example 43, ((2S,3R,4R)-4-(3,4-dimethoxybenzyl)-2-(4-fluorophenyl)tetrahydrofuran-3-yl)-methyl 3,3-dimethylbutanoate] | V (1.0 < a.r. < 1.50)
C/C=C(\C)C(=O)OC[C@H]1[C@@H](Cc2ccc(OC)c(OC)c2)CO[C@@H]1c1ccc(OC)c(OC)c1 [Comparative Example 35, (E)-((2S,3R,4R)-4-(3,4-dimethoxybenzyl)-2-(3,4-dimethoxyphenyl)tetrahydro-furan-3-yl)methyl 2-methylbut-2-enoate] | V (1.0 < a.r. < 1.50)
C=CCOC[C@H]1[C@@H](Cc2ccc(OC)c(OC)c2)CO[C@@H]1c1ccc(OC)c(OC)c1 [Example 42, (2S,3R,4R)-3-((allyloxy)methyl)-4-(3,4-dimethoxybenzyl)-2-(3,4-dimethoxy-phenyl)tetrahydrofuran] | AAA (a.r. ≧ 5.0)
CCCC(=O)OC[C@H]1[C@@H](Cc2ccc(OC)c(OC)c2)CO[C@@H]1c1cc(OC)c(OC)c(OC)c1 [Example 37, ((2S,3R,4R)-4-(3,4-dimethoxybenzyl)-2-(3,4,5-trimethoxyphenyl)tetrahydro-furan-3-yl)methyl butyrate] | AAA (a.r. ≧ 5.0)
COc1ccc([C@H]2OC[C@H](Cc3ccc(C(C)(C)C)cc3)[C@@H]2CO)cc1OC [Example 1, ((2S,3R,4R)-4-(4-(tert-butyl)benzyl)-2-(3,4-dimethoxyphenyl)tetrahydrofuran-3-yl)methanol] | A (a.r. ≧ 1.50)
C/C=C(/C)C(=O)OC[C@H]1[C@@H](Cc2ccc(C(F)(F)F)cc2)CO[C@@H]1c1ccc(OC)c(OC)c1 [Comparative Example 24, (Z)-((2S,3R,4R)-2-(3,4-dimethoxyphenyl)-4-(4-(trifluoromethyl)benzyl)tetra-hydrofuran-3-yl)methyl 2-methylbut-2-enoate] | V (1.0 < a.r. < 1.50)
C/C=C(\C)C(=O)OC[C@H]1[C@@H](Cc2ccc(OC)c(OC)c2)CO[C@@H]1c1cc(OC)c(OC)c(OC)c1 [Example 34, (E)-((2S,3R,4R)-4-(3,4-dimethoxybenzyl)-2-(3,4,5-trimethoxyphenyl)tetra-hydrofuran-3-yl)methyl 2-methylbut-2-enoate] | AAA (a.r. ≧ 5.0)
C/C=C(/C)C(=O)OC[C@H]1[C@@H](Cc2ccccn2)CO[C@@H]1c1ccc(OC)c(OC)c1 [Example 12, (Z)-((2S,3R,4R)-2-(3,4-dimethoxyphenyl)-4-(pyridin-2-ylmethyl)tetrahydro-furan-3-yl)methyl 2-methylbut-2-enoate] | AAA (a.r. ≧ 5.0)
COc1ccc(C[C@H]2CO[C@H](c3ccc(OC)c(OC)c3)[C@H]2COC(=O)CC(C)(C)C)cc1OC [Comparative Example 42, ((2S,3R,4R)-4-(3,4-dimethoxybenzyl)-2-(3,4-dimethoxyphenyl)tetrahydrofuran-3-yl)methyl 3,3-dimethylbutanoate] | V (1.0 < a.r. < 1.50)
COc1ccc([C@H]2OC[C@H](Cc3ccc(C(C)(C)C)cc3)[C@@H]2COC(=O)C2CCCC2)cc1OC [Example 30, ((2S,3R,4R)-4-(4-(tert-butyl)benzyl)-2-(3,4-dimethoxyphenyl)tetrahydrofuran-3-yl)methyl cyclopentanecarboxylate] | AA (a.r. ≧ 2.0)
COc1ccc(C[C@H]2CO[C@H](c3ccc(F)cc3)[C@H]2COC(=O)C2CCCC2)cc1OC [Example 29, ((2S,3R,4R)-4-(3,4-dimethoxybenzyl)-2-(4-fluorophenyl)tetrahydrofuran-3-yl)-methyl cyclopentanecarboxylate] | A (a.r. ≧ 1.50)
COc1ccc(C[C@H]2CO[C@H](c3ccc(OC)c(OC)c3)[C@H]2COC(=O)C=C(C)C)cc1OC [Example 25, ((2S,3R,4R)-4-(3,4-dimethoxybenzyl)-2-(3,4-dimethoxyphenyl)tetrahydrofuran-3-yl)methyl 3-methylbut-2-enoate] | AA (a.r. ≧ 2.0)
COc1ccc(C[C@H]2CO[C@H](c3ccc(OC)c(OC)c3)[C@H]2COC(=O)C(C)(C)C)cc1OC [Comparative Example 45, ((2S,3R,4R)-4-(3,4-dimethoxybenzyl)-2-(3,4-dimethoxyphenyl)tetrahydrofuran-3-yl)methyl pivalate] | V (1.0 < a.r. < 1.50)
COc1ccc(C[C@H]2CO[C@H](c3cc(OC)c(OC)c(OC)c3)[C@H]2COC(=O)C2CCCCC2)cc1OC [Example 39, ((2S,3R,4R)-4-(3,4-dimethoxybenzyl)-2-(3,4,5-trimethoxyphenyl)tetrahydro-furan-3-yl)methyl cyclohexanecarboxylate] | A (a.r. ≧ 1.50)
C/C=C(/C)C(=O)OC[C@H]1[C@@H](Cc2ccc(C)cc2)CO[C@@H]1c1cc(OC)c(OC)c(OC)c1 [Comparative Example 34, (Z)-((2S,3R,4R)-4-(4-methylbenzyl)-2-(3,4,5-trimethoxyphenyl)tetrahydrofuran-3-yl)methyl 2-methylbut-2-enoate] | V (1.0 < a.r. < 1.50)
C/C=C(/C)C(=O)OC[C@H]1[C@@H](Cc2ccc(F)cc2)CO[C@@H]1c1ccc(F)cc1 [Example 17, (Z)-((2S,3R,4R)-4-(4-fluorobenzyl)-2-(4-fluorophenyl)tetrahydrofuran-3-yl)-methyl 2-methylbut-2-enoate] | AAA (a.r. ≧ 5.0)
C/C=C(/C)C(=O)OC[C@H]1[C@@H](Cc2ccc(C(F)(F)F)cc2)CO[C@@H]1c1cc(OC)c(OC)c(OC)c1 [Comparative Example 32, (Z)-((2S,3R,4R)-4-(4-(trifluoromethyl)benzyl)-2-(3,4,5-trimethoxyphenyl)-tetrahydrofuran-3-yl)methyl 2-methylbut-2-enoate] | V (1.0 < a.r. < 1.50)
COc1cc([C@H]2OC[C@H](Cc3ccc(C)cc3)[C@@H]2COC(=O)C2CCCC2)cc(OC)c1OC [Comparative Example 39, ((2S,3R,4R)-4-(4-methylbenzyl)-2-(3,4,5-trimethoxyphenyl)tetrahydrofuran-3-yl)methyl cyclopentanecarboxylate] | V (1.0 < a.r. < 1.50)
COc1ccc([C@H]2OC[C@H](Cc3ccc(C)cc3)[C@@H]2CO)cc1OC [Example 2, ((2S,3R,4R)-2-(3,4-dimethoxyphenyl)-4-(4-methylbenzyl)tetrahydrofuran-3-yl)-methanol] | AAA (a.r. ≧ 5.0)
